Data: a melting point compilation (Tetko et al.; mined from patent text by program, amines drawn as free bases though some values may be those of a salt)

In the case of CC(CC(=O)NC(=O)OC(C)(C)C)Nc1ccc(Cl)cc1 (centres undefined), the melting point is reported as 114 to 115 °C.
For COC(=O)c1ccc(Cn2c3c(c4cc(F)cc(F)c42)CCCC3CC(=O)O)cc1 (centres undefined), the melting point was 169 to 170 °C.
Cc1ccc(NC(=S)Nc2cccc3c2C2CCCCN2C3=O)nc1 (centres undefined) gave a melting point of 232 °C.
Compound CCCOc1ccc(NC=C(C(=O)OCC)C(=O)OCC)cc1C1=NC(=O)C2=NN=NC2=N1 has a melting point of 226 to 227 °C.
CC(=O)Nc1ccc(CCNc2nc(C)nc3sc(C)cc23)cc1 showed a melting point of 248 °C.
Work on CCOC(=O)c1cnc2c(SSc3ccccc3[N+](=O)[O-])cccn2c1=O yielded a melting point of 191 to 193 °C.
With COc1cc(C(O)CN2CCC(Cc3ccccc3)CC2)on1 (centres undefined) the melting point was 134 to 137 °C.
In the case of CN(CCOc1ccc(C=O)cc1)C(=O)OC(C)(C)C, the melting point is reported as 62 to 65 °C.
With CCCn1cnc2ncnn2c1=S the melting point was 168 to 169 °C.
In the case of CSc1nc(Cl)c(C#N)c(Cl)n1, the melting point is reported as 107 °C.
For O=C1Nc2cccnc2N(C(=O)NCCN2CCC(CN3CCCCC3)C2)c2ccccc21 (centres undefined), the melting point was 168 to 169 °C.
Work on Fc1ccc(NCc2ccc(NCc3ccccc3)nc2)nc1 yielded a melting point of 166 to 168 °C.
Work on O=[N+]([O-])c1cccc2c1COC2 yielded a melting point of 104 to 108 °C.
With CC12CCC(=O)C=C1CCC1C2CCC2(C)C(C(=O)NC3C4CC5CC(C4)CC3C5)CCC12 (centres undefined) the melting point was 244 to 246 °C.
With N#Cc1cc2c(cc1C(F)(F)F)[nH]c(=O)c(=O)n2OCc1ccccc1 the melting point was 265 °C.
CCCCc1nc(Cl)c(CO)n1Cc1ccc(-c2ccccc2-c2nnnn2-c2ccc([N+](=O)[O-])cc2)cc1 gave a melting point of 182 to 186 °C.
With CC(=O)Oc1ccc(C(=O)c2cccc(C(=O)O)c2)cc1 the melting point was 190 to 193 °C.
With Nc1nc(CCc2ccccc2)cc(C2CCN(C(=O)c3ccccc3)CC2)n1 the melting point was 104 to 106 °C.
CCOC(=O)C(C#N)(CCBr)c1cc(OC)c(OC)c(OC)c1 (centres undefined) showed a melting point of 76 to 77 °C.
In the case of CN(C(=O)OCc1ccccc1)c1ccc(OCC(=O)O)cc1, the melting point is reported as 96 to 97 °C.
CCOC(=O)/C=C/c1ccc(OCCOC)c(C)c1OCc1ccc(Cl)cc1Cl showed a melting point of 92 to 92.5 °C.
With COc1cc(OC)nc(NC(=O)NS(=O)(=O)c2ccccc2C=O)n1 the melting point was 180 °C.
COc1c(N)cc(Cl)c(OC)c1[N+](=O)[O-] showed a melting point of 68 °C.
With O=P(O)(O)C(O)(CCc1nn(-c2ccc(F)cc2)cc1-c1ccc(Cl)cc1)P(=O)(O)O the melting point was 223 °C.
Work on CCCP(=O)(CCC)Cc1ccc(NC(=O)C2=Cc3cc(-c4ccc(C)cc4)ccc3OCC2)cc1 yielded a melting point of 219 to 220 °C.
For CN1CCSC1=NC(=Nc1ccc(Cl)cc1)N1CCCC1, the melting point was 124 to 127 °C.
CC(=O)NC(CSC(=O)c1ccccc1OC(C)=O)C(=O)O (centres undefined) gave a melting point of 120 to 122 °C.
For Cc1nnc2c(Cl)nc3ccccc3n12, the melting point was 215 to 222 °C.
Compound S=C(Cc1cccnc1)N1CCC(=C2c3ccc(Cl)cc3CCc3cccnc32)CC1 has a melting point of 92 to 93 °C.
Nc1nc(-n2cc(C(=O)O)c(=O)c3cc(F)c(N4CC(O)C4)c(Br)c32)c(F)cc1F gave a melting point of 215 to 220 °C.
COC(=O)c1cc(C(=O)OC)nc(O)n1 showed a melting point of 186 to 188 °C.
Compound COc1cc(C=O)ccc1OCc1cn(-c2ccccn2)nc1C has a melting point of 141 to 142 °C.
In the case of Cn1cncc1C(O)(c1ccc2c(c1)OCCO2)c1ccc2[nH]c(=O)nc(-c3cccc(Cl)c3)c2c1 (centres undefined), the melting point is reported as greater than 260 °C.
With O=C1OC(CCO)C(O)=C1OCc1ccccc1 (centres undefined) the melting point was 98 to 99 °C.
CCn1ncc2c3onc(-c4cccc(OC)c4)c3cnc21 showed a melting point of 130 to 131 °C.
In the case of CCOC(=O)Cc1nc(-c2ccc(F)cc2)oc1-c1ccco1, the melting point is reported as 110 to 111 °C.
Work on O=C(CC(NC(=O)Cc1ccccc1)c1ccccc1)Nc1n[nH]c(=S)s1 (centres undefined) yielded a melting point of 249 to 250 °C.
Compound COCCOc1nc(C)nc(N2CCC(c3ccc(F)cc3)CC2)c1[N+](=O)[O-] has a melting point of 45 to 48 °C.
In the case of CC(=O)Nc1ccccc1CS(=O)c1nccn1-c1ccccn1 (centres undefined), the melting point is reported as 172 to 173 °C.
In the case of CCn1c(=O)n(/C(C)=C\SC)c2ccccc21, the melting point is reported as 74 °C.
CCOC(=O)c1cnc(OCC)c2c(C)n[nH]c12 showed a melting point of 200 °C.
Compound CCOC(=O)NOC(=O)c1ccc(C(=O)ONC(=O)OCC)cc1 has a melting point of 130 °C.
Work on CSc1ccc2ncccc2c1N yielded a melting point of 88.5 to 90.5 °C.
Clc1ccc2c(NCCC34C=CCN3CCC4)ccnc2c1 (centres undefined) showed a melting point of 124 to 125 °C.
O=CN(O)C(CCc1ncc(F)cn1)CS(=O)(=O)N1CCN(c2ccc(Cl)cn2)CC1 (centres undefined) gave a melting point of 154 to 155 °C.
With COC(=O)Nc1nc2ccccc2n1C(=O)NC1CC(C)(C)CC(C)(N(C)C(=O)n2c(NC(=O)OC)nc3ccccc32)C1 (centres undefined) the melting point was 82 to 83 °C.
FC(F)(F)Sc1ccc(/C=C/c2nc(COc3ccc(-c4nc(Cn5ccnc5)co4)cc3)co2)cc1 gave a melting point of 144 to 145 °C.
CNC(=C(Br)C#N)c1ccc(Cl)cc1 showed a melting point of 178 °C.
In the case of C[C@@H]1CN(c2ccc(-c3[nH]nc4c3C(=O)c3c(NC(=O)NN5CCOCC5)cccc3-4)cc2)C[C@H](C)N1, the melting point is reported as 237 °C.
